Measurements published in patent US10351536B2, “Crystalline forms of lesinurad and its sodium salt” (CRYSTAL PHARMATECH CO., LTD., priority 2013, dated 2019).
Counter-ions that a name gives are not always drawn. Values belong to the molecule of their own block, whether it stands above or below them.

Legend:
[1] = Inter-conversion of Form A and Form α of lesinurad sodium salt by stirring in water (XRPD); type: physicochemical
gout patients = conditions: Phase III, gout patients without benefit from allopurinol and febuxostat, lesinurad alone; cited from earlier work
[2] = Stability assessment of lesinurad sodium salt Form β on storage (XRPD); type: physicochemical; conditions: room temperature, 12 months
Experimental: (§1) Analytical Instrument: Panalytical Empyrean. The X-ray powder diffractogram was determined by mounting a sample of the crystalline material on a Si single crystal low-background holder and spreading out the sample into a thin layer with the aid of a microscope slide. The 2θ position was calibrated against Panalytical 640 Si powder standard. The sample irradiated with X-rays generated by a copper long-fine focus tube operated at 45 kV and 40 mA with a wavelength of Kα1=1.540589 angstroms and Kα2=1.544426 angstroms (Kα1/Kα2 intensity ratio is 0.50). The collimated X-ray source was passed through a programmed divergence slit set at 10 mm and the reflected radiation directed through a 5.5 mm anti-scattering slit. The sample was exposed for 16.3 seconds per 0.013° 2-theta increment (continuous scan mode) over the range 3 degrees to 40 degrees 2-theta in theta-theta mode. The running time was 3 minutes and 57 seconds. The instrument was equipped with an RTMS detector (X'Celerator). Control and data capture was accomplished by means of a Dell Optiplex 780 XP operating with data collector software.
A sample of the lesinurad sodium salt Form β was stored under room temperature for 12 months. The solid sample was analyzed by XRPD.

[3] = Hygroscopicity assessment by dynamic vapor sorption (DVS); type: physicochemical; conditions: 25° C.
Experimental: Dynamic Vapor Sorption (DVS) was measured via a SMS (Surface Measurement Systems) DVS Intrinsic. The relative humidity at 25° C. were calibrated against deliquescence point of LiCl, Mg(NO3)2 and KCl. Typical Parameters for DVS test are listed below.
Hygroscopicity of lesinurad Form III was investigated using dynamic vapor sorption (DVS).
Hygroscopicity criteria applied in this example refer to the standard in European pharmacopoeia: • deliquescent: sufficient water is absorbed to form a liquid, • very hygroscopic: increase in mass is equal to or greater than 15 percent, • hygroscopic: increase in mass is less than 15 percent and equal to or greater than 2 percent, • slightly hygroscopic: increase in mass is less than 2 percent and equal to or greater than 0.2 percent.

[4] = Stability assessment of Form III under stress conditions (XRPD); type: physicochemical; conditions: 14 days; for Final form: dish open, XRPD
Experimental: as §1
Two samples of lesinurad Form III were stored under 25° C./60% RH and 40° C./75% RH, respectively, with dish open for 14 days. The solid samples were analyzed by XRPD.

- Relative stability in water ([1]; in water under ambient conditions): more stable in comparison to Form A
SMILES: O=C(O)CSc1nnc(Br)n1-c1ccc(C2CC2)c2ccccc12 [Form α, lesinurad sodium salt]

SMILES: O=C(O)CSc1nnc(Br)n1-c1ccc(C2CC2)c2ccccc12 [lesinurad, 2-((5-bromo-4-(4-cyclopropylnaphthalen-1-yl)-4H-1,2,4-triazol-3-yl)thio)acetic acid]
- Serum levels of uric acid (gout patients): significantly reduced serum levels of uric acid

- Form conversion after stirring in water ([1]; water, 500 rpm, 24 hours, ambient conditions, XRPD): converts to Form α
SMILES: O=C(O)CSc1nnc(Br)n1-c1ccc(C2CC2)c2ccccc12 [Form A, lesinurad sodium salt, reference compound]

- Stability under the stress conditions [2]: stable under the stress conditions
- Final form ([2]; XRPD): salt Form β
SMILES: O=C(O)CSc1nnc(Br)n1-c1ccc(C2CC2)c2ccccc12 [Form β, lesinurad sodium salt]

- Water uptake under 80% RH ([3]; 80% RH): 0.8%
- Water uptake under 95% RH ([3]; 95% RH): 2.4%
- Stability under the stress conditions ([4]; 25° C./60% RH and 40° C./75% RH): stable under the stress conditions
- Final form ([4]; 25° C./60% RH): Form III
- Final form ([4]; 40° C./75% RH): Form III
SMILES: O=C(O)CSc1nnc(Br)n1-c1ccc(C2CC2)c2ccccc12 [Form III, 2-((5-bromo-4-(4-cyclopropylnaphthalen-1-yl)-4H-1,2,4-triazol-3-yl)thio)acetic acid]
- Hygroscopicity (European pharmacopoeia criteria) ([3]; 80% RH): slightly hygroscopic (increase in mass is less than 2 percent and equal to or greater than 0.2 percent)
